Test results: patent US20210038688A1, “ICAM-1 MARKER AND APPLICATION THEREOF” (Shanghai Institute of Nutrition and Health, Chinese Academy …, priority 2018, published 2021)

Experiments:
[1] = test system: ICAM-1−/− adipose stem cells; assay: in vitro adipogenic differentiation of adipose stem cells derived from ICAM-1−/− mice (oil red staining, Western blot, Real time PCR); type: cell-based
Description: (§1) FIG. 6E and FIG. 6F respectively show the mRNA levels of Pparg (FIG. 6E) and Fabp4 (FIG. 6F) after adipogenic differentiation of WT and ICAM-1^−/− mice-derived adipose stem cells under […] or DMSO treatment, using Real time PCR.
(§2) Cultivation of adipose stromal cells The sorted CD31^−CD45^−Sca-1^+PDGFR-α^+ adipose stromal cells as well as CD31^−CD45^−Sca-[…]-1^− and other components were cultured in DMEM low-sugar medium supplemented with 10% FBS alone or in combination. In some experiments, adherent adipose mononuclear cells were directly cultured in DMEM low-sugar medium supplemented with 10% FBS, and immune cells and vascular endothelial cells were removed during the medium exchange and passage steps to obtain simple adipose stromal cells.
(§3) For preparing differentiation medium, 0.5 mM 3-isobutyl-1-methylxanthine (IBMX), 50 μM indomethacin, 10 μg/ml insulin and 0.5 μM dexamethasone were added to 10% FBS of DMEM high glucose medium. When the adipose stromal cells grew to 100% confluence, the differentiation medium was changed and the medium was changed every two days, and it was taken about 5 days until differentiation was completed.
(§4) Rho and ROCK can negatively regulate adipogenic differentiation in a cytoskeleton-dependent or insulin signal-dependent manner, and our RNA-seq data also supports the role of Rho GTPase in adipose differentiation. In order to test whether Rho and ROCK are involved in the inhibitory effect of ICAM-1 on adipogenic differentiation of adipose stem cells, we used ROCK inhibitor Y-27632 to treat adipose stem cells respectively. […] Therefore, ICAM-1 inhibits the adipogenic differentiation of adipose stem cells through the Rho-ROCK pathway.
(§5) In order to verify whether Rho GTPase activity can reverse the excessive adipogenic differentiation caused by ICAM-1 deletion, we used the Rho agonist Rho activator II (RA2), which can constitutively activate RhoGTPase. […] It is important that the difference in the expression of adipogenic differentiation genes between wild-type and ICAM-1^−/− cells is eliminated by Rho

[2] = test system: wild-type adipose stem cells; assay: in vitro adipogenic differentiation of adipose stem cells derived from WT mice (oil red staining, Western blot, Real time PCR); type: cell-based
Description: as §1, §2, §3, §4, §5

[3] = test system: human adipose stem cells; assay: adipogenic differentiation induction of human primary adipose stromal cells (ICAM-1 siRNA knockdown, RA2); type: cell-based; settings: RA2 treatment during differentiation; FIG. 7H-J
Description: FIGS. 7F-7G respectively show the adipogenic differentiation-related gene expression and Rho GTP activity of adipose stem cells during adipogenic differentiation with the expression of ICAM-1 interfered.
FIGS. 7H-7J respectively show the expressions of adipogenic differentiation-related genes (PPARG, CEBPA, FABP4) in adipose stem cells observed with RA2 activated Rho after interfering with ICAM-1 expression.
as §3
First, the expression content of ICAM-1 in human adipose tissue was analyzed. Currently, there is no recognized characteristic molecule of human preadipocytes. […] These ICAM-1^+ cells, like adipose tissue in mice, are mainly located around blood vessels (FIG. 7B). To test the regulatory effect of ICAM-1 on human adipose stem cells, we isolated human primary adipose stromal cells for adipogenic differentiation induction. […]

[4] = test system: WT mice; assay: local RA2 injection into right inguinal fat pad of WT mice with high-fat diet induced obesity; type: in vivo; settings: RA2 locally into right inguinal fat pad, 10 weeks
Description: (§6) FIG. 6L-6N respectively show the visual observation result (FIG. 6L), adipose tissue observation result (FIG. 6M) and statistical analysis of changes in subcutaneous adipose tissue weight (6N) in the right subcutaneous adipose tissue of WT mice and ICAM-1^−/− mice that were given a high-fat diet induced obesity is injected with RA2 (every 2 days, […]).
(§7) This asymmetry is not observed in RA2-treated WT mice and PBS-treated mice (FIG. 6L).

[5] = test system: ICAM-1−/− mice; assay: local RA2 injection into right inguinal fat pad of ICAM-1−/− mice with high-fat diet induced obesity; type: in vivo; settings: RA2 locally into right inguinal fat pad, 10 weeks
Description: as §6, §7

Compound | adipogenic differentiation (oil red staining) ([1]; 10 μM Y-27632 compared with DMSO-treated group, ICAM-1−/− cells, FIG. 6C) | expression level of Perilipin A protein (Western blot) ([1]; Y-27632 vs DMSO, ICAM-1−/− cells after adipogenic differentiation) | expression of adipogenic differentiation-related proteins and genes (Perilipin A, Pparg, Fabp4) ([1]; inhibiting ROCK (Y-27632 vs DMSO), ICAM-1−/− cells, FIG. 6D-F) | adipogenic differentiation (oil red staining) ([2]; 10 μM Y-27632 compared with DMSO-treated group, wild-type cells, FIG. 6C) | expression level of Perilipin A protein (Western blot) ([2]; Y-27632 vs DMSO, wild-type cells after adipogenic differentiation) | expression of adipogenic differentiation-related proteins and genes (Perilipin A, Pparg, Fabp4) ([2]; inhibiting ROCK (Y-27632 vs DMSO), wild-type cells, FIG. 6D-F) | adipogenic differentiation ability (oil red staining) ([1]; RA2 added during in vitro differentiation, ICAM-1−/− cells, FIG. 6G) | difference in the expression of adipogenic differentiation genes between wild-type and ICAM-1−/− cells ([1]; Rho GTPase activation by RA2, FIG. 6H-K) | adipogenic differentiation genes Pparg, Cebpa, Fabp4, Plin1 (mRNA, Real time PCR) ([1]; Rho GTPase activation by RA2, ICAM-1−/− precursor cells, FIG. 6H-K) | enhancement of adipogenic differentiation of ICAM-1 knock-down cells (PPARG, CEBPA, FABP4 expression) [3] | adipogenic differentiation ability (oil red staining) ([2]; RA2 added during in vitro differentiation, wild-type cells, FIG. 6G) | adipogenic differentiation genes Pparg, Cebpa, Fabp4, Plin1 (mRNA, Real time PCR) ([2]; Rho GTPase activation by RA2, wild-type cells, FIG. 6H-K) | asymmetry of inguinal fat pads on both sides ([4]; FIG. 6L) | fat weight (subcutaneous adipose tissue) ([4]; every 2 days, FIG. 6M-N) | excessive adipogenic differentiation (inguinal fat pads, injected right vs left side) ([5]; FIG. 6L) | fat weight (subcutaneous adipose tissue) ([5]; every 2 days, FIG. 6M-N)
C[C@@H](N)[C@H]1CC[C@H](C(=O)Nc2ccncc2)CC1 [Y-27632] | no obvious effect | little effect | not obvious | significantly accelerate | significantly increase | significantly increase | – | – | – | – | – | – | – | – | – | –
Rho activator II [RA2] | – | – | – | – | – | – | significantly inhibited | eliminated | extensive reduction | eliminated | not obvious | only Pparg and Fabp4 are significantly changed | not observed | not | weakened | significantly reduce
